Source: patent publication US20120053053A1, “PYRIMIDINE DERIVATIVES AND THEIR USE AS HERBICIDES” (SYNGENTA CROP PROTECTION, LLC, priority 2009, published 2012)

Columns and labels:
Format in all cases: in vivo
[1] = test system: Alopecurus myosuroides (ALOMY); experiment: Pre-emergence biological efficacy (percentage damage); settings: dose 1,000 g/ha, evaluated after 13 days, 100=total damage, 0=no damage; for pest or weed control at 1000 g/ha: Alopecurus myosuroides, 312 h
Method in brief: (§1)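 Percentage damage (100 = total, 0 = none) was assessed 13 days after treatment. Compound was sprayed at a final dose of 250 or 1000 g/ha onto soil sown one day earlier, with plants kept under controlled glasshouse conditions (24/16 °C, 14 h light, 65% humidity).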

[2] = test system: Amaranthus retoflexus (AMARE); experiment: as above; settings: dose 1,000 g/ha, evaluated after 13 days, 100=total damage, 0=no damage; for pest or weed control at 1000 g/ha: Amaranthus retroflexus, 312 h
Method in brief: as §1

Setaria faberi (SETFA) [3] = experiment: as above; settings: dose 1,000 g/ha, evaluated after 13 days, 100=total damage, 0=no damage; for pest or weed control at 1000 g/ha: Setaria faberi, 312 h
Method in brief: as §1

[4] = test system: Echinochloa crus-galli (ECHCG); experiment: as above; settings: dose 1,000 g/ha, evaluated after 13 days, 100=total damage, 0=no damage; for pest or weed control at 1000 g/ha: Echinochloa crus-galli, 312 h
Method in brief: as §1

[5] = test system: Ipomea hederaceae (IPOHE); experiment: as above; settings: dose 1,000 g/ha, evaluated after 13 days, 100=total damage, 0=no damage; for pest or weed control at 1000 g/ha: Ipomoea hederacea, 312 h
Method in brief: as §1

Solanum nigrum (SOLNI) [6] = experiment: as above; settings: dose 1,000 g/ha, evaluated after 13 days, 100=total damage, 0=no damage; for pest or weed control at 1000 g/ha: Solanum nigrum, 312 h
Method in brief: as §1

[7] = test system: Alopecurus myosuroides (ALOMY); experiment: Post-emergence biological efficacy (percentage damage); settings: dose 1,000 g/ha, evaluated after 13 days, 100=total damage, 0=no damage; for pest or weed control at 1000 g/ha: Alopecurus myosuroides, 312 h
Method in brief: (§2)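 Applied rates: 250 or 1000 g/ha, sprayed from acetone/water (50:50) with 0.5% Tween 20 onto plants 8 days after sowing. Visual damage rating 13 days later on a 0–100 scale.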

[8] = test system: Amaranthus retoflexus (AMARE); experiment: as above; settings: dose 1,000 g/ha, evaluated after 13 days, 100=total damage, 0=no damage; for pest or weed control at 1000 g/ha: Amaranthus retroflexus, 312 h
Method in brief: as §2

Setaria faberi (SETFA) [9] = experiment: as above; settings: dose 1,000 g/ha, evaluated after 13 days, 100=total damage, 0=no damage; for pest or weed control at 1000 g/ha: Setaria faberi, 312 h
Method in brief: as §2

[10] = test system: Echinochloa crus-galli (ECHCG); experiment: as above; settings: dose 1,000 g/ha, evaluated after 13 days, 100=total damage, 0=no damage; for pest or weed control at 1000 g/ha: Echinochloa crus-galli, 312 h
Method in brief: as §2

[11] = test system: Ipomea hederaceae (IPOHE); experiment: as above; settings: dose 1,000 g/ha, evaluated after 13 days, 100=total damage, 0=no damage; for pest or weed control at 1000 g/ha: Ipomoea hederacea, 312 h
Method in brief: as §2

Solanum nigrum (SOLNI) [12] = experiment: as above; settings: dose 1,000 g/ha, evaluated after 13 days, 100=total damage, 0=no damage; for pest or weed control at 1000 g/ha: Solanum nigrum, 312 h
Method in brief: as §2

| SMILES | pest or weed control at 1000 g/ha [1] [%] | pest or weed control at 1000 g/ha [2] [%] | pest or weed control at 1000 g/ha (Setaria faberi (SETFA) [3]) [%] | pest or weed control at 1000 g/ha [4] [%] | pest or weed control at 1000 g/ha [5] [%] | pest or weed control at 1000 g/ha (Solanum nigrum (SOLNI) [6]) [%] | pest or weed control at 1000 g/ha [7] [%] | pest or weed control at 1000 g/ha [8] [%] | pest or weed control at 1000 g/ha (Setaria faberi (SETFA) [9]) [%] | pest or weed control at 1000 g/ha [10] [%] | pest or weed control at 1000 g/ha [11] [%] | pest or weed control at 1000 g/ha (Solanum nigrum (SOLNI) [12]) [%] | also measured |
| --- | --- | --- | --- | --- | --- | --- | --- | --- | --- | --- | --- | --- | --- |
| C=Cc1c(N)nc(-c2ccc(Cl)c(N(C)C)c2F)nc1C(=O)OCCCCCCCC [Compound 33-392] |  |  |  |  |  |  |  |  |  |  |  |  | Percentage damage ALOMY, pre-emergence [1]: 70%; Percentage damage AMARE, pre-emergence [2]: 100%; Percentage damage SETFA, pre-emergence (Setaria faberi (SETFA) [3]): 90%; Percentage damage ECHCG, pre-emergence [4]: 100%; Percentage damage IPOHE, pre-emergence [5]: 0%; Percentage damage SOLNI, pre-emergence (Solanum nigrum (SOLNI) [6]): 80%; Percentage damage ALOMY, post-emergence [7]: 70%; Percentage damage AMARE, post-emergence [8]: 100%; Percentage damage SETFA, post-emergence (Setaria faberi (SETFA) [9]): 60%; Percentage damage ECHCG, post-emergence [10]: 80%; Percentage damage IPOHE, post-emergence [11]: 80%; Percentage damage SOLNI, post-emergence (Solanum nigrum (SOLNI) [12]): 90% |
| C=Cc1c(N)nc(-c2ccc(Cl)c(N(C)C)c2F)nc1C(=O)OCC(CC)CCCC (stereo not drawn) [Compound 33-393, 4-Amino-2-(4-chloro-3-dimethylamino-2-fluorophenyl)-5-ethenyl-6-(2-ethylhexyloxy) carbonyl-pyrimidine] | 0 | 20 | 0 | 0 | 0 | 20 | 0 | 70 | 0 | 20 | 70 | 70 |  |
| C=Cc1c(N)nc(-c2ccc(Cl)c(N(C)C)c2F)nc1C(=O)OC(C)c1ccccc1 (stereo not drawn) [Compound 33-394, 4-Amino-2-(4-chloro-3-dimethylamino-2-fluorophenyl)-5-ethenyl-6-(1-phenyl-ethoxy)carbonyl-pyrimidine] | 20 | 40 | 30 | 30 | 0 | 40 | 30 | 100 | 50 | 60 | 30 | 80 |  |
| C=CCOC(=O)c1nc(-c2ccc(Cl)c(N(C)C)c2F)nc(N)c1C=C [Compound 33-395, 4-Amino-2-(4-chloro-3-dimethylamino-2-fluorophenyl)-5-ethenyl-6-(prop-2-enyloxy)carbonyl-pyrimidine] | 60 | 100 | 80 | 90 | 30 | 100 | 70 | 100 | 100 | 100 | 30 | 100 |  |
| C=Cc1c(N)nc(-c2ccc(Cl)c(N(C)C)c2F)nc1C(=O)OCCOCC [Compound 33-396, 4-Amino-2-(4-chloro-3-dimethylamino-2-fluorophenyl)-5-ethenyl-6-(2-ethoxy-ethoxy)carbonyl-pyrimidine] | 70 | 100 | 80 | 90 | 50 | 90 | 70 | 100 | 90 | 100 | 60 | 90 |  |
| C=Cc1c(N)nc(-c2ccc(Cl)c(N(C)C)c2F)nc1C(=O)OCCOCCCC [Compound 33-397] | 80 | 100 | 90 | 100 | 50 | 100 | 80 | 100 | 90 | 90 | 80 | 90 |  |
| C=Cc1c(N)nc(-c2ccc(F)cc2)nc1C(=O)OC [Compound 41-61, 4-Amino-5-ethenyl-2-(4-fluorophenyl)-6-methoxycarbonyl-pyrimidine] | 20 | 100 | 10 | 10 | 40 | 0 | 20 | 100 | 10 | 10 | 60 | 90 |  |
| C=Cc1c(N)nc(-c2ccc(F)c(OC)c2)nc1C(=O)OC [Compound 42-61, 4-Amino-5-ethenyl-2-(4-fluoro-3-methoxyphenyl)-6-methoxycarbonyl-pyrimidine] | 10 | 60 | 20 | 10 | 0 | 20 | 30 | 100 | 40 | 30 | 10 | 30 |  |
| C=Cc1c(N)nc(-c2ccc(F)c(C(F)(F)F)c2)nc1C(=O)OC [Compound 43-61, 4-Amino-5-ethenyl-2-(4-fluoro-3-trifluoromethyl-phenyl)-6-methoxycarbonyl-pyrimidine] | 30 | 60 | 50 | 70 | 10 | 70 | 30 | 20 | 20 | 30 | 10 | 70 |  |
| C=Cc1c(N)nc(-c2ccc(F)c(Cl)c2)nc1C(=O)OC [Compound 44-61, 4-Amino-2-(3-chloro-4-fluorophenyl)-5-ethenyl-6-methoxycarbonyl-pyrimidine] | 20 | 50 | 30 | 40 | 10 | 40 | 40 | 100 | 60 | 50 | 30 | 90 |  |
| C=Cc1c(N)nc(-c2ccc(F)c(C)c2)nc1C(=O)OC [Compound 45-61, 4-Amino-5-ethenyl-2-(4-fluoro-3-methylphenyl)-6-methoxycarbonyl-pyrimidine] | 50 | 100 | 50 | 40 | 0 | 40 | 50 | 100 | 50 | 40 | 30 | 70 |  |
| C=Cc1c(N)nc(-c2ccc(OC(F)(F)F)cc2)nc1C(=O)OC [Compound 47-61, 4-Amino-5-ethenyl-6-methoxycarbonyl-2-(4-trifluoromethoxy-phenyl)-pyrimidine] | 0 | 0 | 0 | 0 | 0 | 0 | 10 | 100 | 10 | 10 | 10 | 70 |  |
| COC(=O)c1nc(-c2ccc(C)c(OC)c2F)nc(N)c1C [Compound 60-41] | 20 | 0 | 10 | 10 | 10 | 40 | 40 | 100 | 10 | 30 | 40 | 100 |  |
